Values after ≈ are worked out from the molar mass of the structure shown. Read-outs that look alike come from different tables or passages of the source.
Columns and labels:
S. aureus ATCC 13709 = experiment: MIC, S. aureus ATCC 13709 (Alamar Blue broth microdilution); type: cell-based; settings: for MIC: Staphylococcus aureus, ATCC13709, S. aureus
E. coli ATCC 25922 = experiment: MIC, E. coli ATCC 25922; type: cell-based; settings: for MIC: Escherichia coli, ATCC25922, E. coli
[1] = S. aureus, Alamar Blue read after overnight incubation at 35° C.
[2] = E. coli, Alamar Blue read after overnight incubation at 35° C.
[3] = Alamar Blue read after overnight incubation at 35° C.

| Compound | MIC Sa (S. aureus ATCC 13709; [1]) [µg/mL] | MIC Ec (E. coli ATCC 25922; [2]) [µg/mL] | MIC (S. aureus ATCC 13709; [3]) [µg/mL] | MIC (E. coli ATCC 25922; [3]) [µg/mL] | also measured |
| --- | --- | --- | --- | --- | --- |
| CNc1cc(F)c(C)c2c1[nH]c1nc(Oc3cnc(C)nc3)nc(NC3CCCCC3N)c12 (stereo not shown) [6.22] |  |  |  |  | MIC Sa (S. aureus ATCC 13709): >16 µg/mL; MIC Ec (E. coli ATCC 25922): >16 µg/mL |
| CNc1cc(F)cc2c1[nH]c1nc(Oc3cnc(C)nc3)nc(N3C[C@H](N)[C@@H](O)C3)c12 [4.136] | 2 (≈ 4.71 µM) | 8 (≈ 18.8 µM) |  |  |  |
| CNc1cc(F)cc2c1[nH]c1nc(Oc3cncnc3)nc(N3CCC4(CCNC4)C3)c12 (stereo not shown) [4.033] |  |  | ≤ 0.5 | 4 (≈ 9.21 µM) |  |
| CNc1cc(F)cc2c1[nH]c1nc(Oc3cnc(C(C)C)nc3)nc(N3CC4CC(N)C4C3)c12 (stereo not shown) [4.234] | ≤0.5 | 1 (≈ 2.16 µM) |  |  |  |
| CNc1cc(F)c(F)c2c1[nH]c1nc(Oc3cnc4c(c3)ncn4C3CC3)nc(N3C[C@H]4C[C@@H]3C[C@H]4N)c12 [5.15] |  |  | ≤ 0.5 | 1 (≈ 1.93 µM) |  |
| CNc1cc(F)cc2c1[nH]c1nc(Oc3cncc(F)c3)nc(N3CC4CC(N)C3C4)c12 (stereo not shown) [4.063] | 1 (≈ 2.29 µM) | 8 (≈ 18.3 µM) |  |  |  |
| CNc1cc(F)cc2c1[nH]c1nc(Oc3cnc(C)nc3)nc(N3CCCC(N)C3)c12 (stereo not shown) [4.077] | ≤0.5 | ≤0.5 |  |  |  |
| CNc1cc(F)cc2c1[nH]c1nc(Oc3cnc(C)nc3)nc(N3CC(N)C(C(F)(F)F)C3)c12 (stereo not shown) [4.436] |  |  | ≤ 0.5 | > 16 |  |
| CNc1cc(F)c(F)c2c1[nH]c1nc(Oc3cnc(C)nc3)nc(N3CC4(CCC4N)C3)c12 (stereo not shown) [5.1] | ≤0.5 | ≤0.5 |  |  |  |
| CNc1cc(F)cc2c1[nH]c1nc(Oc3cnc(C(C)(C)O)nc3)nc(C3CC4(CC[C@H]4N)C3)c12 (stereo partly shown) [4.431] |  |  | ≤ 0.5 | ≤ 0.5 |  |
| N[C@@H]1CCN(c2nc(Sc3cnc4ccc[n+]([O-])c4c3)nc3[nH]c4c(Cl)cccc4c23)C1 [1.4] |  |  | 32 (≈ 69 µM) | 64 (≈ 138 µM) |  |
| CNc1cc(F)cc2c1[nH]c1nc(Oc3cnc(S(C)(=O)=O)nc3)nc(N3CC4C(N)CC4(C)C3)c12 (stereo not shown) [4.385] | ≤0.5 | ≤0.5 |  |  |  |
| CNc1cc(F)c(F)c2c1[nH]c1nc(Oc3cnc(C)nc3)nc(N3CC(N)C4(CC4)C3)c12 (stereo not shown) [5.05] | ≤0.5 | ≤0.5 |  |  |  |
| CNc1cc(F)cc2c1[nH]c1nc(Oc3cnc(C)nc3)nc(N3CC(C)C(CN)C3)c12 (stereo not shown) [4.087] | ≤0.5 | 1 (≈ 2.29 µM) |  |  |  |
| CNc1cc(F)cc2c1[nH]c1nc(Oc3cnc(C)nc3)nc(N3CC4(CCN4)C3)c12 [4.120] | ≤0.5 | 1 (≈ 2.38 µM) |  |  |  |
| CNc1cc(F)cc2c1[nH]c1nc(Oc3cnc(C)nc3)nc(-c3cccc(CN)c3F)c12 [4.422] |  |  | 4 (≈ 8.94 µM) | 16 (≈ 35.8 µM) |  |

| Compound | MIC Sa (S. aureus ATCC 13709; [1]) [µg/mL] | MIC Ec (E. coli ATCC 25922; [2]) [µg/mL] | MIC (S. aureus ATCC 13709; [3]) [µg/mL] | MIC (E. coli ATCC 25922; [3]) [µg/mL] | also measured |
| --- | --- | --- | --- | --- | --- |
| CNc1cc(F)cc2c1[nH]c1nc(Oc3cnc(C4CC4)nc3)nc(N3CC4NCCCC43)c12 (stereo not shown) [4.247] |  |  | 1 (≈ 2.17 µM) | 8 (≈ 17.4 µM) |  |
| CNc1cc(F)cc2c1[nH]c1nc(Oc3cnc(C)nc3)nc(N3CCC(N)C(C)(C)C3)c12 (stereo not shown) [4.152] |  |  | ≤ 0.5 | 1 (≈ 2.22 µM) |  |
| CNc1cc(F)cc2c1[nH]c1nc(Oc3cnc(N4CCC4)nc3)nc(N3C[C@H](N)C4(CC4)C3)c12 [4.297] |  |  | ≤ 0.5 | ≤ 0.5 |  |
| CNc1cccc2c1[nH]c1nc(Sc3cnc4ccc[n+]([O-])c4c3)nc(N3CC(C4(N)CC4)C3)c12 [1.33] |  |  | ≤ 0.5 | 4 (≈ 8.25 µM) |  |
| CNc1cc(F)cc2c1[nH]c1nc(Oc3cnc(C)nc3)nc(N3CCC4CNC4C3)c12 (stereo not shown) [4.081] | ≤0.5 | 1 (≈ 2.3 µM) |  |  |  |
| CNc1cc(F)cc2c1[nH]c1nc(Oc3cnc4c(c3)C(=O)N(C)C4C)nc(N3CC4CC3C[C@@H]4N)c12 (stereo partly shown) [4.398] |  |  | ≤ 0.5 | ≤ 0.5 |  |
| CNc1cccc2c1[nH]c1nc(Oc3cnc(N4CCOCC4)nc3)nc(N3CC4C(N)C4C3)c12 (stereo not shown) [3.26] |  |  | > 16 | > 16 |  |
| CNc1cccc2c1[nH]c1nc(Oc3cncc(F)c3)nc(N3C[C@@H](N)C4(CC4)C3)c12 [3.51] |  |  | 8 (≈ 19.1 µM) | 32 (≈ 76.3 µM) |  |
| CNc1cc(F)cc2c1[nH]c1nc(Oc3cncc(-c4nn[nH]n4)c3)nc(N3CC4C(N)C4C3)c12 (stereo not shown) [4.224] |  |  | 1 (≈ 2.11 µM) | > 16 |  |
| CNc1cc(F)cc2c1[nH]c1nc(Oc3cncc(C)c3)nc(N3CC4CC(N)C4C3)c12 (stereo not shown) [4.303] |  |  | ≤ 0.5 | ≤ 0.5 |  |
| CNc1cc(F)cc2c1[nH]c1nc(Oc3cnc(SC)nc3)nc(N3C[C@H]4C[C@@H]3C[C@H]4N)c12 [4.204] | ≤0.5 | ≤0.5 |  |  |  |
| CNc1ncnc2c1[nH]c1nc(Oc3cncc(F)c3)nc(N3CC4C(N)C4C3)c12 (stereo not shown) [7.04] |  |  | 8 (≈ 19.6 µM) | 32 (≈ 78.5 µM) |  |
| CNc1cc(F)c(F)c2c1[nH]c1nc(Oc3cnc(C)nc3)nc(N3CC4(CC[C@H]4N)C3)c12 [5.01] |  |  | ≤ 0.5 | ≤ 0.5 |  |
| CNc1cc(F)cc2c1[nH]c1nc(Oc3cnc(C)nc3)nc(N[C@@H]3CC4CC3CN4)c12 (stereo partly shown) [4.155] |  |  | 2 (≈ 4.6 µM) | > 16 |  |
| CNc1cc(F)cc2c1[nH]c1nc(Oc3cnc(N)nc3)nc(N3CC4C(N)C4C3)c12 (stereo not shown) [4.172] |  |  | ≤ 0.5 | ≤ 0.5 |  |
| CNc1cc(F)cc2c1[nH]c1nc(Oc3cncnc3)nc(N3CC4CC3C4CN)c12 (stereo not shown) [4.030] | 2 (≈ 4.76 µM) | 16 (≈ 38.1 µM) |  |  |  |
